Series [1] is described as follows: refractive index (Na D-line) (dimensionless). As to conditions: 298.15 K; 101.33 kPa; Liquid; Standard Abbe refractometry.
For series [2] the following is noted: Liquid, Ebulliometric method (Recirculating still).

Numbers after ± are expanded uncertainties.

In general, refractive index refers to a measure of how strongly the sample bends light. Take `Cc1ccccc1C` [1,2-dimethylbenzene]: in series [1], the refractive index is reported as 1.5028 ± 0.0007.

Broadly, the vapor or sublimation pressure is the equilibrium pressure above the liquid or solid. Consider `CCCC(C)C` [2-methylpentane], for which the “vapor or sublimation pressure” value in series [2] (290.34 K) is given as 20.3 ± 0.4 kPa; in series [2] (299.7 K) it was 30.13 ± 0.42 kPa; in series [2] (307.12 K) it was 40.39 ± 0.46 kPa; in series [2] (312.92 K) it was 50.23 ± 0.5 kPa; in series [2] (317.93 K) it was 60.24 ± 0.54 kPa; in series [2] (322.26 K) it was 70.13 ± 0.59 kPa. The “vapor or sublimation pressure” value in series [2] (326.15 K) worked out at 80.11 ± 0.64 kPa; in series [2] (329.74 K), 90.32 ± 0.69 kPa; in series [2] (333.37 K), 101.76 ± 0.72 kPa. Besides, in series [1], the refractive index came to 1.3685 ± 0.0007.

Regarding `Cc1ccsc1` [3-methylthiophene], the refractive index in series [1] came out at 1.5172 ± 0.0007.

On to `CCCCCC` [hexane], for which the refractive index in series [1] is on record as 1.3724 ± 0.0007.

As to `CC1CCCCC1` [methylcyclohexane], the “vapor or sublimation pressure” value in series [2] (325.39 K) is recorded as 20.25 ± 0.39 kPa; in series [2] (336.27 K), 30.47 ± 0.4 kPa; in series [2] (344.1 K) it was 40.07 ± 0.43 kPa; in series [2] (350.71 K), 49.96 ± 0.47 kPa; in series [2] (356.44 K), 60.05 ± 0.51 kPa; in series [2] (361.45 K), 70.17 ± 0.55 kPa. The “vapor or sublimation pressure” value in series [2] (365.75 K) worked out at 79.96 ± 0.59 kPa; in series [2] (369.98 K), 90.64 ± 0.63 kPa; in series [2] (373.9 K), 101.6 ± 0.65 kPa.

On to `CC1CCCC1` [methylcyclopentane], for which the “vapor or sublimation pressure” value turned out to be 20.25 ± 0.4 kPa in series [2] (300.4 K); 30.18 ± 0.41 kPa in series [2] (310.16 K); 40.24 ± 0.45 kPa in series [2] (317.69 K); 50.16 ± 0.49 kPa in series [2] (323.75 K); 60.22 ± 0.53 kPa in series [2] (328.97 K); 69.94 ± 0.58 kPa in series [2] (333.37 K). Besides, the “vapor or sublimation pressure” value in series [2] (337.5 K) is recorded as 80.18 ± 0.62 kPa; in series [2] (341.25 K) it was 90.53 ± 0.68 kPa; in series [2] (345.1 K), 102.31 ± 0.7 kPa. Besides, the refractive index in series [1] was found to be 1.4067 ± 0.0007.

These data come from the NIST ThermoML archive (doi:10.1016/j.fluid.2009.11.004).
